Assay results: ChEMBL document CHEMBL2424516, “Facile synthesis of novel quinoline derivatives as anticancer agents” (2013)
The source made the active and inactive calls. The rule behind the calls is not given here.

System: Escherichia coli
Experiment: Induction of Escherichia coli DNA cleavage at 100 ug after 2 hrs by agarose gel electrophoresis
Settings: not given

Row | SMILES | Activity
1 | CC(=O)NC1=NN(C(C)=O)C(c2cc3cc(Br)ccc3n3nnnc23)S1 (centres undefined) | Active
2 | COc1ccc2c(c1)cc(C1SC(NC(C)=O)=NN1C(C)=O)c1nnnn12 (centres undefined) | Active
3 | CC(=O)NC1=NN(C(C)=O)C(c2cc3cc(C)ccc3n3nnnc23)S1 (centres undefined) | Active
4 | CC(=O)NC1=NN(C(C)=O)C(c2cc3ccccc3n3nnnc23)S1 (centres undefined) | Active
5 | COc1ccc2cc(C3SC(NC(C)=O)=NN3C(C)=O)c3nnnn3c2c1 (centres undefined) | Active
6 | CC(=O)NC1=NN(C(C)=O)C(c2cc3cccc(C)c3n3nnnc23)S1 (centres undefined) | Active
7 | COc1cccc2cc(C3SC(NC(C)=O)=NN3C(C)=O)c3nnnn3c12 (centres undefined) | Active
8 | COc1cc2cc(C3SC(NC(C)=O)=NN3C(C)=O)c3nnnn3c2cc1OC (centres undefined) | Active
9 | CC(=O)NC1=NN(C(C)=O)C(c2cc3cc(Cl)ccc3n3nnnc23)S1 (centres undefined) | Active

System: MCF7
Experiment: Cytotoxicity against human MCF7 cells by SRB assay
Format: functional
Settings: not given

Row | SMILES | GI50 [µM] | TGI [µM]
10 | CC(=O)NC1=NN(C(C)=O)C(c2cc3cc(Br)ccc3n3nnnc23)S1 (centres undefined) | > 100 | > 100
11 | COc1ccc2c(c1)cc(C1SC(NC(C)=O)=NN1C(C)=O)c1nnnn12 (centres undefined) | > 100 | > 100
12 | CC(=O)NC1=NN(C(C)=O)C(c2cc3cc(C)ccc3n3nnnc23)S1 (centres undefined) | > 100 | > 100
13 | CC(=O)NC1=NN(C(C)=O)C(c2cc3ccccc3n3nnnc23)S1 (centres undefined) | > 100 | > 100
14 | COc1ccc2cc(C3SC(NC(C)=O)=NN3C(C)=O)c3nnnn3c2c1 (centres undefined) | > 100 | > 100
15 | CC(=O)NC1=NN(C(C)=O)C(c2cc3cccc(C)c3n3nnnc23)S1 (centres undefined) | 95.3 | > 100
16 | CC(=O)NC1=NN(C(C)=O)C(c2cc3ccc(C)cc3n3nnnc23)S1 (centres undefined) | 98.9 | > 100
17 | COc1cccc2c1C(=O)c1c(O)c3c(c(O)c1C2=O)C[C@@](O)(C(=O)CO)C[C@@H]3O[C@H]1C[C@H](N)[C@H](O)[C@H](C)O1 [DOXORUBICIN] | < 0.1 | > 0.1
18 | COc1cccc2cc(C3SC(NC(C)=O)=NN3C(C)=O)c3nnnn3c12 (centres undefined) | > 100 | > 100
19 | COc1cc2cc(C3SC(NC(C)=O)=NN3C(C)=O)c3nnnn3c2cc1OC (centres undefined) | > 100 | > 100
20 | CC(=O)NC1=NN(C(C)=O)C(c2cc3cc(Cl)ccc3n3nnnc23)S1 (centres undefined) | > 100 | > 100

Same assay, conditions: read-out: LC50 (the source's name)

Row | SMILES | CC50 [µM]
21 | CC(=O)NC1=NN(C(C)=O)C(c2cc3cc(Br)ccc3n3nnnc23)S1 (centres undefined) | > 100
22 | COc1ccc2c(c1)cc(C1SC(NC(C)=O)=NN1C(C)=O)c1nnnn12 (centres undefined) | > 100
23 | CC(=O)NC1=NN(C(C)=O)C(c2cc3cc(C)ccc3n3nnnc23)S1 (centres undefined) | > 100
24 | CC(=O)NC1=NN(C(C)=O)C(c2cc3ccccc3n3nnnc23)S1 (centres undefined) | > 100
25 | COc1ccc2cc(C3SC(NC(C)=O)=NN3C(C)=O)c3nnnn3c2c1 (centres undefined) | > 100
26 | CC(=O)NC1=NN(C(C)=O)C(c2cc3cccc(C)c3n3nnnc23)S1 (centres undefined) | > 100
27 | CC(=O)NC1=NN(C(C)=O)C(c2cc3ccc(C)cc3n3nnnc23)S1 (centres undefined) | > 100
28 | COc1cccc2c1C(=O)c1c(O)c3c(c(O)c1C2=O)C[C@@](O)(C(=O)CO)C[C@@H]3O[C@H]1C[C@H](N)[C@H](O)[C@H](C)O1 [DOXORUBICIN] | > 100
29 | COc1cccc2cc(C3SC(NC(C)=O)=NN3C(C)=O)c3nnnn3c12 (centres undefined) | > 100
30 | COc1cc2cc(C3SC(NC(C)=O)=NN3C(C)=O)c3nnnn3c2cc1OC (centres undefined) | > 100
31 | CC(=O)NC1=NN(C(C)=O)C(c2cc3cc(Cl)ccc3n3nnnc23)S1 (centres undefined) | > 100

System: HeLa
Experiment: Cytotoxicity against human HeLa cells by SRB assay
Format: functional
Settings: not given

Row | SMILES | GI50 [µM] | LC50 (concentration killing 50% of cells) [µM] | TGI [µM]
32 | CC(=O)NC1=NN(C(C)=O)C(c2cc3cc(Br)ccc3n3nnnc23)S1 (centres undefined) | < 0.1 | > 100 | > 100
33 | COc1ccc2c(c1)cc(C1SC(NC(C)=O)=NN1C(C)=O)c1nnnn12 (centres undefined) | > 100 | > 100 | > 100
34 | CC(=O)NC1=NN(C(C)=O)C(c2cc3cc(C)ccc3n3nnnc23)S1 (centres undefined) | 81.3 | > 100 | > 100
35 | CC(=O)NC1=NN(C(C)=O)C(c2cc3ccccc3n3nnnc23)S1 (centres undefined) | > 100 | > 100 | > 100
36 | COc1ccc2cc(C3SC(NC(C)=O)=NN3C(C)=O)c3nnnn3c2c1 (centres undefined) | > 100 | > 100 | > 100
37 | CC(=O)NC1=NN(C(C)=O)C(c2cc3cccc(C)c3n3nnnc23)S1 (centres undefined) | 85.1 | > 100 | > 100
38 | CC(=O)NC1=NN(C(C)=O)C(c2cc3ccc(C)cc3n3nnnc23)S1 (centres undefined) | 83.3 | > 100 | > 100
39 | COc1cccc2c1C(=O)c1c(O)c3c(c(O)c1C2=O)C[C@@](O)(C(=O)CO)C[C@@H]3O[C@H]1C[C@H](N)[C@H](O)[C@H](C)O1 [DOXORUBICIN] | < 0.1 | – | > 0.1
40 | COc1cccc2cc(C3SC(NC(C)=O)=NN3C(C)=O)c3nnnn3c12 (centres undefined) | > 100 | > 100 | > 100
41 | COc1cc2cc(C3SC(NC(C)=O)=NN3C(C)=O)c3nnnn3c2cc1OC (centres undefined) | > 100 | > 100 | > 100
42 | CC(=O)NC1=NN(C(C)=O)C(c2cc3cc(Cl)ccc3n3nnnc23)S1 (centres undefined) | < 0.1 | > 100 | > 100
